The values below are quoted from earlier work in patent US10071072B2, “Method for treating neurotrauma” (N.V. Nutricia, priority 2011, dated 2018).

The data set has as its system neurotrauma. The conditions noted are these: in vivo supply; King et al. J. Neurosci.

For the molecule `CC/C=C\C/C=C\C/C=C\CCCCCCCC(=O)O` [α-linolenic acid], the neuroprotection in neurotrauma entry is reported as “neuroprotective”.
